Several values for one entry are separate records, joined by “and”; a condition that tells them apart may be missing. Equal entries are not always repeated. Where two headings read alike, the source gives them in different places. Some results are limits rather than exact numbers.

Consider two compounds from article PMC7815808, “Enzyme and lateral flow monoclonal antibody-based immunoassays to simultaneously determine spirotetramat and spirotetramat-enol in foodstuffs” (Scientific Reports, 2021).

Series [1] can be described thus: Spirotetramat hydrolysis study by HPLC‒MS/MS. The conditions noted are these: for fate on incubation in basic solution: 40 mM NaOH, 10 min, room temperature, HPLC‒MS/MS; for content found by HPLC–MS/MS, sample treatment A: SP hydrolysed (40 mM NaOH, 10 min, room temperature); for content found by HPLC–MS/MS, sample treatment C: SP-enol hydrolysed (40 mM NaOH, 10 min, room temperature). Further details: content found by HPLC–MS/MS, sample treatment A / content found by HPLC–MS/MS, sample treatment B / content found by HPLC–MS/MS, sample treatment C / content found by HPLC–MS/MS, sample treatment D: unit not given beside the values. The series is classed as physicochemical. The protocol: (§1) In order to simultaneously quantify SP and SP-enol contents in a sample, an in situ procedure for treating the sample with alkaline solution in order to hydrolyse SP into SP-enol was assessed. SP and SP-enol standard solutions were prepared in MilliQ water and diluted fivefold with 40 mM NaOH. The mixtures were incubated 10 min at room temperature and diluted twofold with dilution buffer (200 mM Tris·HCl buffer, pH 8.0, containing 280 mM NaCl). For the competitive step, enzyme tracer solutions were prepared in TBS-T (100 mM Tris·HCl buffer, pH 8.0, containing 140 mM NaCl and 0.05% (v/v) Tween-20). As shown in the inset of Table 2, the obtained standard curves of SP-enol and hydrolysed SP were almost identical. This hydrolysis procedure was validated by HPLC‒MS/MS. SP and SP-enol aqueous solutions (50 µg/mL) were treated with NaOH and, 10 min later, the pH was lowered as previously described. Then, 10 µL of hydrolysed and diluted sample was transferred into 990 µL of acetonitrile and dried with anhydrous MgSO4. Controls without the hydrolysis step were also evaluated. Finally, the contents of SP, SP-enol, SP-keto, and SP-mono in the organic extracts were quantified (Table 2). […] Those samples were also analysed with the studied direct cELISA by running SP-enol standard solutions that had been incubated in NaOH and diluted with dilution buffer like the samples. […] Consequently, the developed hydrolysis procedure seemed to perform adequately for SP and SP-enol residue quantification as SP-enol equivalents.
SP, SP-enol, SP-keto, and SP-mono standard solutions were prepared by serial dilution in acetonitrile from 1 to 2500 μg/L in amber glass vials and kept at − 20 °C. The injection volume was 5 µL and the column temperature was 45 °C. The analysis was carried out using a C18 reverse phase column with a gradient of 0.2% (v/v) formic acid in water (A) and acetonitrile (B) as mobile phase at a flow rate of 0.3 mL/min. The elution profile was 0‒3 min, from 5% B to 95% B, 3.0‒3.5 min, 95% B, 3.5‒3.6 min, from 95% B to 5% B, and 3.6‒8 min, 5% B. Spectra were acquired in positive ionization multiple reaction monitoring mode with interchannel delay of 0.02 s.

The target in a further series is mAbs to SP and SP-enol. The experiment in a line: Direct cELISA, binding of analytes and other pesticides by the generated mAbs. The arrangement: species or system mouse. The conditions noted are these: homologous tracer. From the text: Six mouse mAbs were obtained; three were from immunogen BSA‒SPm—named SPm#23, SPm#25, and SPm#216—and three from conjugate BSA‒SPo—named SPo#227, SPo#237, and SPo#243. These antibodies contained κ light chains and were of the IgG1 isotype, except mAb SPm#25 which was IgG2a. The affinity to SP and SP-enol was studied by checkerboard cELISA in the capture antibody-coated direct format, using homologous and heterologous enzyme tracers (with the same or different hapten, respectively, than the immunizing conjugate). SP and SP-enol standards were prepared in PBS (10 mM phosphate buffer, pH 7.4, with 140 mM NaCl) and tracer solutions for the competitive step were prepared in PBS-T (PBS containing 0.05% (v/v) Tween-20). […] Tracers with linker site heterologies were not bound by the antibodies. The only exception was mAb SPm#23 which did recognize the heterologous HRP‒SPh conjugate. For this antibody, the spacer arm of hapten SPh was located at a more proximal site than that of hapten […]. The lowest IC50 value with the homologous tracer was around 3 nM for SP-enol whereas binding to SP was moderate (IC50 values were higher than 30 nM).
(§2) Concerning specificity, the two assayed immunogens (BSA‒SPm and BSA‒SPo) afforded equivalent results. […] Cross-reactivity with the main SP metabolites was studied with antibody SPm#23.
(§3) Microplates were precoated with GAM in order to immobilise the mAb. The competitive step was carried out by mixing the analyte solution or diluted sample with the enzyme tracer solution. Standard curves were built in borosilicate glass tubes from 0.03 to 30 nM by a threefold serial dilution of the most concentrated standard solution, and a blank (no analyte) was also run. Concentrated stock solutions of the analytes in anhydrous DMF were used to prepare the most concentrated standard solution—the DMF concentration was always lower than 0.1% (v/v). The complete immunoassay procedure can be found in the Supplementary Information file.
(§4) Table S1. Specificity of the
(§5) 7. Direct competitive ELISA procedure
(§6) The same protocol previously described for this format was applied.7 Briefly, plates were coated with 100 µL per well of 1 µg/mL GAM solution in carbonate‒bicarbonate buffer, pH 9.6, by overnight incubation at 4 °C. Wells were washed four times with washing solution (150 mM NaCl with 0.05% (v/v) Tween-20) after each incubation step. Then, 100 µL per well of specific mAb solution in PBS-T was added and plates were incubated at room temperature during 1 h. The competitive reaction was carried out by adding 50 µL per well of analyte solution or diluted sample and 50 µL per well of tracer […]
(§7) enzyme substrate solution (2 mg/mL o-phenylendiamine and 0.012% (v/v) H2O2 in 25 mM sodium citrate and 62 mM sodium phosphate buffer, pH 5.4). Ten minutes later, the enzyme reaction was stopped by adding 100 µL per well of 1 M H2SO4.
8. Influence of pH and ionic strength […]
(§8) 7 E. Ceballos-Alcantarilla, D. López-Puertollano, C. Agulló, A. Abad-Fuentes, A. Abad-Somovilla, J. V. Mercader.
Combined heterologies for monoclonal antibody-based immunoanalysis of fluxapyroxad. Analyst 143, 5718‒

Series [2] in a line: Spirotetramat hydrolysis study by direct cELISA. Format: physicochemical. The protocol:
as §1

The subject of series [3] is mAb SPm#23. The experiment in a line: Antibody specificity (cross-reactivity) of the selected mAb. The series is classed as binding, mouse. As to conditions: cross-reactivity of the selected mAb, SP-enol = 100; n=3. The protocol:
as §2, §3, §4, §5, §6, §7
8. Influence of pH and ionic strength
Figure S5. Influence of pH and ionic strength over the Amax and IC50 values of the spirotetramat-enol standard curve of the studied direct cELISA.
as §8
Combined heterologies for monoclonal antibody-based immunoanalysis of fluxapyroxad. Analyst 143, 5718‒ […]

For series [4], the system named is mAb SPm#23. The experiment in a line: Optimized direct cELISA (mAb SPm#23 with tracer HRP–SPh), SP-enol standard curve. Format: binding, mouse. As to conditions: for IC50 value for the sum of spirotetramat and spirotetramat-enol: direct cELISA, heterologous bioconjugate. Here is the method:
as §1
The sigmoidal inhibition curve obtained for SP-enol and the final assay conditions of the developed direct cELISA are provided in Table 3. […] The Amax value of the standard curve was near 1.0, the slope was − 1.4, and the background signal was negligible.
as §3
The absorbance of each microplate well was immediately read at 492 nm using a reference wavelength at 650 nm, and values were processed with KCJunior software from BioTek Instruments. The SigmaPlot Version 14.0 was used to fit the experimental values to a standard four-parameter logistic curve. Immunoassay sensitivity was estimated as the concentration of analyte affording a 50% decrease (IC50) of the maximum absorbance (Amax) obtained in the absence of analyte. The LOD of the assay was defined as the IC10 of the sigmoidal inhibition curve. The LOQ was experimentally determined as the lowest analyte concentration that provided accurate and precise results using fortified food samples. […]
as §5
The same protocol previously described for this format was applied.7 Briefly, plates were coated with 100 µL per well of 1 µg/mL GAM solution in carbonate‒bicarbonate buffer, pH 9.6, by overnight incubation at 4 °C. Wells were washed four times with washing solution (150 mM NaCl with 0.05% (v/v) Tween-20) after each incubation step. […]

The subject of a further series is mammals. The arrangement: method as in earlier work. The conditions noted are these: cited from earlier work.
On the set-up of series [5]: method as in PMID 23436572. As to conditions: cited from earlier work.
The mark [6] stands for this setting: incubated in NaOH solution (samples A and C).
Setting [7] is: non-hydrolysed control solution (samples B and D).
[8] abbreviates: SPm#23 100 μg/L, HRP–SPh 30 μg/L, Tris·HCl pH 8.0, after 40 mM NaOH step, n = 5.

For `CO[C@H]1CC[C@]2(CC1)NC(=O)C(c1cc(C)ccc1C)=C2O` [SP-enol, spirotetramat-enol], in series [1], the “fate on incubation in basic solution” value is recorded as “remained unmodified”. In addition, the “content found by HPLC–MS/MS, sample treatment A” value in series [1] (A) is reported as 116.7. For the same compound, the “content found by HPLC–MS/MS, sample treatment B” value in series [1] (B, SP without hydrolysis) amounted to 1.44. Moreover, the “content found by HPLC–MS/MS, sample treatment C” value in series [1] (C) worked out at 149.1. For the same compound, the “Recovery (%), sample treatment C” value in series [1] (C, SP-enol hydrolysed, HPLC–MS/MS) is on record as 119.6%. In addition, the “content found by HPLC–MS/MS, sample treatment D” value in series [1] (D, SP-enol without hydrolysis) amounted to 142.8. In series [1] (D, SP-enol without hydrolysis, HPLC–MS/MS), the “Recovery (%), sample treatment D” value is given as 114.6%. For the same compound, the IC50 (commonly the concentration that gives 50% inhibition) at mAbs to SP and SP-enol (read-out: lowest IC50 value with the homologous tracer) is about 3 nM; in the series on mAb SPm#23 [4] (setting [8]) it was 0.34 nM and 0.344 nM. The “recovery measured as SP-enol by direct cELISA” value (“recovery measured as SP-enol” for short) worked out at 117.6% in series [2] (setting [6]) and 118.0% in series [2] (setting [7]). Also, the “CR (%)” value in the series with mAb SPm#23 [3] stood at 100%. The “LOD (μg/L) (IC10)” value in the series on mAb SPm#23 [4] (IC10 of the SP-enol inhibition curve, n = 5) is 0.02 µg/L and 0.022 ± 0.004 µg/L. In the series with mAb SPm#23 [4] (setting [8]), the “IC50 SP-enol” value was 0.1 ng/mL and 0.104 ± 0.007 ng/mL. Besides, the “IC50 value for the sum of spirotetramat and spirotetramat-enol” value in the series on mAb SPm#23 [4] stood at 0.1 ng/mL.

For the compound `CCOC(=O)OC1=C(c2cc(C)ccc2C)C(=O)N[C@]12CC[C@@H](OC)CC2` [SP, ethyl cis-8-methoxy-2-oxo-3-(2,5-xylyl)-1-azaspiro[4.5]dec-3-en-4-yl carbonate], in series [1], the “fate on incubation in basic solution” value is recorded as “completely hydrolysed into SP-enol”. In addition, in series [1] (A), the “content found by HPLC–MS/MS, sample treatment A” value was found to be 0.03. Moreover, in series [1] (A, SP hydrolysed, HPLC–MS/MS), the “Recovery (%), sample treatment A” value is 93.4%. In addition, the “content found by HPLC–MS/MS, sample treatment B” value in series [1] (B, SP without hydrolysis) amounted to 109.4. Also, the “Recovery (%), sample treatment B” value in series [1] (B, SP without hydrolysis, HPLC–MS/MS) turned out to be 88.8%. Moreover, the “content found by HPLC–MS/MS, sample treatment C” value in series [1] (C) was 0.02. Further, the “content found by HPLC–MS/MS, sample treatment D” value in series [1] (D, SP-enol without hydrolysis) is 0.00. Also, the IC50 at mAbs to SP and SP-enol (all mAbs, read-out: IC50 values with the homologous tracer) is over 30 nM. For the same compound, in the series with mammals, the eye irritation entry is “can be an eye irritant”, the skin-sensitization entry is reported as “may cause skin-sensitization” and the toxicity in mammals entry is “does not show severe toxicity”. Also, the “hydrolysis at basic pH values” in series [5] is recorded as “quickly hydrolyses to form SP-enol”. The “recovery measured as SP-enol” value in series [2] (setting [6]) came to 85.0%. The “recovery measured as SP-enol” value in series [2] (setting [7]) is “could not be quantified”. In addition, in the series with mAb SPm#23 [3], the “CR (%)” value came to 11.8%. For the same compound, the “IC50 value for the sum of spirotetramat and spirotetramat-enol” value in the series with mAb SPm#23 [4] is 0.1 ng/mL.
